In ChEMBL document CHEMBL1130750, “Heteroatom-substitution as a strategy for increasing the potency of competitive NMDA antagonists” (Bioorg Med Chem Lett, 1998):

Assays:
Glutamate NMDA receptor [1] = assay: Compound was tested in vitro for inhibition of binding of [3H]-CGS- 19755 radioligand to NMDA receptor in rat brain membranes; type: cell membranes
Mus musculus = assay: In vivo minimum effective dose required to block NMDA induced lethality in Mice following i.p. administration; type: functional; conditions: ip, read-out: MED
Glutamate NMDA receptor [2] = assay: Compound was tested in vitro for its ability to inhibit depolarizations induced by 40 uM NMDA in a cortical slice(NMDA antagonist); type: functional
Glutamate NMDA receptor [3] = assay: In vitro ability to inhibit depolarizations induced by 40 uM NMDA in a cortical slice (NMDA antagonist); type: functional
Glutamate NMDA receptor [4] = assay: Compound was tested in vitro for its ability to inhibit depolarizations induced by 40 uM NMDA in a cortical slice (NMDA antagonist); type: functional
[5] = biological target: T1, Glutamate NMDA receptor (Rattus norvegicus) (UniProt P35439+Q00959+Q00960+Q00961+Q62645+Q8VHN2+Q9R1M7); assay: In vitro percent inhibition of depolarizations induced by 10 uM NMDA in a cortical slice (NMDA antagonist); type: functional
[6] = biological target: T1, Glutamate NMDA receptor (Rattus norvegicus); assay: In vitro percent inhibition of depolarizations induced by 3.2 uM NMDA in a cortical slice ( NMDA antagonist); type: functional

Row | SMILES | IC50 (Glutamate NMDA receptor [1]) [nM] | minimal effective dose (Mus musculus) [mg/kg] | other results
1 | O=C(O)[C@H]1C[C@@H](CCc2nnn[nH]2)CCN1 | 2300 | 20 | IC50 (Glutamate NMDA receptor [2]): 8100 nM
2 | O=C(O)[C@H]1C[C@@H](Sc2nn[nH]n2)CCN1 | 110 | – | –
3 | O=C(O)[C@H]1C[C@@H](CSc2nn[nH]n2)CCN1 | 1300 | – | –
4 | O=C(O)[C@H]1C[C@@H](CCCc2nnn[nH]2)CCN1 | – | 10 | IC50 (Glutamate NMDA receptor [3]): 12400 nM
5 | O=C(O)[C@H]1C[C@@H](COCc2nn[nH]n2)CCN1 | 8300 | 80 | IC50 (Glutamate NMDA receptor [4]): 34500 nM
6 | O=C(O)[C@H]1C[C@@H](OCc2nn[nH]n2)CCN1 | 280 | 2.5 | IC50 (Glutamate NMDA receptor [4]): 4700 nM
7 | O=C(O)[C@H]1C[C@H](Sc2nn[nH]n2)CCN1 | 75 | – | inhibition [5]: 75%; inhibition [6]: 20%
8 | O=C(O)[C@H]1C[C@@H](Cc2nnn[nH]2)CCN1 | 17 | 5 | –
